Patent publication US7465741B2, “C-substituted tricyclic isoxazoline derivatives and their use as anti-depressants” (Janssen Pharmaceutica N.V., priority 2002, dated 2008)

Columns and labels:
hα2A receptor = biological target: T1, hα2A receptor (Homo sapiens, UniProt P08913); experiment: Radioligand binding experiment for hα2A receptor ([3H]-raulwolscine, CHO cell membranes); details: [3H]-raulwolscine 1 nM, membranes of CHO cells transfected with human α2A receptor; read-out: pIC50 hα2A (converted)
T1 construct: expressed in transfected cells; host or cells: CHO cells
T1 sequence (P08913 1-465): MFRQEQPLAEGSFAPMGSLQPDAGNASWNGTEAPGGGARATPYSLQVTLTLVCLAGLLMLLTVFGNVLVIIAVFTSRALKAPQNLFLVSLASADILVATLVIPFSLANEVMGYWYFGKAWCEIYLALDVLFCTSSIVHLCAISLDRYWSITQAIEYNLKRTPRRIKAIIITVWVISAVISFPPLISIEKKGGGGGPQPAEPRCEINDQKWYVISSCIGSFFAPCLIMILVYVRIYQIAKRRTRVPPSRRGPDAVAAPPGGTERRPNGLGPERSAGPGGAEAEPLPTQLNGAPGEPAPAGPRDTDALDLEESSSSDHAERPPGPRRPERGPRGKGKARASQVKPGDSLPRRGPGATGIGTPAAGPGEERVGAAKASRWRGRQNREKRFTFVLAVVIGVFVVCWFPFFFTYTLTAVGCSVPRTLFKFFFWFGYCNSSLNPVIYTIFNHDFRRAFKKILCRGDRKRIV
Procedure: (§1) The interaction of the compounds according to Formula (I) with hα2-receptors and h5-HT-transporters was assessed in in vitro radioligand binding experiments. In general, a low concentration of a radioligand with a high binding affinity for a particular receptor or transporter is incubated with a sample of a tissue preparation enriched in a particular receptor or transporter or with a preparation of cells expressing cloned human receptors in a buffered medium. During the incubation, the radioligand binds to the receptor or transporter. When equilibrium of binding is reached, the receptor bound radioactivity is separated from the non-bound radioactivity, and the receptor- or transporter-bound activity is counted. The interaction of the test compounds with the receptor is assessed in competition binding experiments. Various concentrations of the test compound are added to the incubation mixture containing the receptor- or transporter preparation and the radioligand. The test compound in proportion to its binding affinity and its concentration inhibits binding of the radioligand. The radioligand used for hα2A, hα2B and hα2C receptor binding was [^3H]-raulwolscine and for the h5-HT transporter was [^3H]paroxetine.
(§2) CHO cells, stabile transfected with human adrenergic-α2A-, —α2B or α2C receptor cDNA, were cultured in Dulbecco's Modified Eagle's Medium (DMEM)/Nutrient mixture Ham's F12 (ratio 1:1)(Gibco, Gent-Belgium) supplemented with 10% heat inactivated fetal calf serum (Life Technologies, Merelbeke-Belgium) and antibiotics (100 IU/ml penicillin G, 100 μg/ml streptomycin sulphate, 110 μg/ml pyruvic acid and 100 μg/ml L-glutamine). One day before collection, cells were induced with 5 mM sodiumbutyrate. Upon 80-90% of confluence, cells were scraped in phosphate buffered saline without Ca^2+ and Mg^2+ and collected by centrifugation at 1500×g for 10 min. The cells were homogenised in Tris-HCl 50 mM using an Ultraturrax homogenizer and centrifuged for 10 min at 23,500×g. The pellet was washed once by resuspension and rehomogenization and the final pellet was resuspended in Tris-HCl, divided in 1 ml aliquots and stored at −70° C.
(§3) Membranes were thawed and re-homogenized in incubation buffer (glycylglycine 25 mM, pH 8.0). In a total volume of 500 μl, 2-10 μg protein was incubated with [^3H]raulwolscine (NET-722) (New England Nuclear, USA) (1 nM final concentration) with or without competitor for 60 min at 25° C. followed by rapid filtration over GF/B filter using a Filtermate196 harvester (Packard, Meriden, Conn.). Filters were rinsed extensively with ice-cold rinsing buffer (Tris-HCl 50 mM pH 7.4). Filter-bound radioactivity was determined by scintillation counting in a Topcount (Packard, Meriden, Conn.) and results were expressed as counts per minute (cpm). Non-specific binding was determined in the presence of 1 μM oxymetazoline for hα2A- and hα2B receptors and 1 μM spiroxatrine for hα2C receptors.
(§4) Data from assays in the presence of compound were calculated as a percentage of total binding measured in the absence of test compound. Inhibition curves, plotting percent of total binding versus the log value of the concentration of the test compound, were automatically generated, and sigmoidal inhibition curves were fitted using non-linear regression. The pIC50 values of test compounds were derived from individual curves.

hα2B receptor = biological target: T2, hα2B receptor (Homo sapiens, UniProt P18089); experiment: Radioligand binding experiment for hα2B receptor ([3H]-raulwolscine, CHO cell membranes); details: [3H]-raulwolscine 1 nM, membranes of CHO cells transfected with human α2B receptor; read-out: pIC50 hα2B (converted)
T2 construct: expressed in transfected cells; host or cells: CHO cells
T2 sequence (P18089 1-450): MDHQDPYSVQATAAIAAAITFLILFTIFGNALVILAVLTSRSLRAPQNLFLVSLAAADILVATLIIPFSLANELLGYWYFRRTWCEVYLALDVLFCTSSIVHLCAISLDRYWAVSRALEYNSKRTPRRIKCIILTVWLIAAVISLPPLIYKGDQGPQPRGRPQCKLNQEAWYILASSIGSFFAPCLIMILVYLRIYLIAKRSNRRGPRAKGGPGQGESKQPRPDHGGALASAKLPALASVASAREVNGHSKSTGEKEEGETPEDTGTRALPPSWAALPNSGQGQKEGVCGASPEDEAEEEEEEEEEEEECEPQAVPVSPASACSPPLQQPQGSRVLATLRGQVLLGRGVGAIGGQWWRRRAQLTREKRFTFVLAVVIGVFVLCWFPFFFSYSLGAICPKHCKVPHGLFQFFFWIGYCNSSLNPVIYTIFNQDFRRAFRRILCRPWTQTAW
Procedure: as §1, §2, §3, §4

hα2C receptor = biological target: T3, hα2C receptor (Homo sapiens, UniProt P18825); experiment: Radioligand binding experiment for hα2C receptor ([3H]-raulwolscine, CHO cell membranes); details: [3H]-raulwolscine 1 nM, membranes of CHO cells transfected with human α2C receptor; read-out: pIC50 hα2C (converted)
T3 construct: expressed in transfected cells; host or cells: CHO cells
T3 sequence (P18825 1-462): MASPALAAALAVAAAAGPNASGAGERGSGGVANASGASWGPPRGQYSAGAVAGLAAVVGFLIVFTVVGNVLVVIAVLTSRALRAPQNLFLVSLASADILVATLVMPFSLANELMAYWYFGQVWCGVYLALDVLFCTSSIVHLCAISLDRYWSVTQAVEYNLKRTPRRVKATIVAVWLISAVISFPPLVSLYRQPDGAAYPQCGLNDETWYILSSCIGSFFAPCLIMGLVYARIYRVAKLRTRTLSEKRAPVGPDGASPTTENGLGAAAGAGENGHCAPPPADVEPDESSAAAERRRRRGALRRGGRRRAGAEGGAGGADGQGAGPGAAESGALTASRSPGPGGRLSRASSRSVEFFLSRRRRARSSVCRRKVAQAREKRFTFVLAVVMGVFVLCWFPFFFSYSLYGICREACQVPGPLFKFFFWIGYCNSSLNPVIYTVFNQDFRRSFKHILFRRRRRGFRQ
Procedure: as §1, §2, §3, §4

h5-HT transporter = biological target: T4, h5-HT transporter (Homo sapiens, UniProt P31645); experiment: Radioligand binding experiment for 5-HT transporter ([3H]paroxetine, human platelet membranes); details: [3H]paroxetine 0.5 nM, read-out: pIC50 h5HTT (converted)
T4 construct: Human platelet membranes (Oceanix Biosciences Corporation, Hanover, Md., USA) were thawed; tissue Oceanix Biosciences Corporation; host or cells: human platelet membranes
T4 sequence (P31645 whole entry): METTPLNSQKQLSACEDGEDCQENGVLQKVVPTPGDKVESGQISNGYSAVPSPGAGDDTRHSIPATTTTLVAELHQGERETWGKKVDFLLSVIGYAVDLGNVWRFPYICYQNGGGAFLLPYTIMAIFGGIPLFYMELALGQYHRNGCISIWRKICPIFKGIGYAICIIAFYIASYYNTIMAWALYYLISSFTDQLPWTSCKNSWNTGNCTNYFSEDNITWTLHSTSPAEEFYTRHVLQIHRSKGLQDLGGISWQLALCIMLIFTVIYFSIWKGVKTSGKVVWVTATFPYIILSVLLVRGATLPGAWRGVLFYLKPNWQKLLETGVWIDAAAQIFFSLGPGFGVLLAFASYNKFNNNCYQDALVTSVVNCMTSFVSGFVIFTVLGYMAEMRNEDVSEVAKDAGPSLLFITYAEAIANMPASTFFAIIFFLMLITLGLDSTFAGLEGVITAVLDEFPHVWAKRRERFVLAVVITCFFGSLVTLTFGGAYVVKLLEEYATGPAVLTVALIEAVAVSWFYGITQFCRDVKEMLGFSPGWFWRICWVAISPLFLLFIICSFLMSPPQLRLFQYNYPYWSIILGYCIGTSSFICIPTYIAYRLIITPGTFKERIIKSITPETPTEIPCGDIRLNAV
Procedure: as §1
Human platelet membranes (Oceanix Biosciences Corporation, Hanover, Md., USA) were thawed, diluted in buffer (Tris-HCl 50 mM, 120 mM NaCl and 5 mM KCl) and quickly (max 3 s) homogenised with an Ultraturrax homogenizer. In a total volume of 250 μL, 50-100 μg protein was incubated with [^3H]paroxetine (NET-869) (New England Nuclear, USA) (0.5 nM final concentration) with or without competitor for 60 min at 25° C. Incubation was stopped by rapid filtration of the incubation mixture over GF/B filters, pre-wetted with 0.1% polyethyleneamine, using a Filtermate 196 harvester (Packard, Meriden, Conn.). Filters were rinsed extensively with ice-cold buffer and radioactivity on the filters was counted in a Topcount liquid scintillation counter (Packard, Meriden, Conn.). Data were expressed as cpm. Imipramine (at 1 μM final concentration) was used to determine the non-specific binding.
as §4

| SMILES | IC50 (hα2A receptor) | IC50 (hα2B receptor) | IC50 (hα2C receptor) | IC50 (h5-HT transporter) |
| --- | --- | --- | --- | --- |
| COc1cc2c(cc1COC(C)=O)OCC1C2=NOC1CN1CCN(C/C(C)=C/c2ccccc2)CC1 (centres unmarked) [Compound 7, Acetic acid 8-methoxy-3-[4-(2-methyl-3-phenyl-allyl)-piperazin-1-ylmethyl]-3a,4-dihydro-3H-chromeno[4,3-c]isoxazol-7-ylmethyl ester] | 3.98 nM |  | 1.26 nM | 12.6 nM |
| COc1cc2c(cc1COc1ccccc1)OCC1C2=NOC1CN1CCN(C/C(C)=C/c2ccccc2)CC1 (centres unmarked) [Compound 8, 8-Methoxy-3-[4-(2-methyl-3-phenyl-allyl)-piperazin-1-ylmethyl]-7-phenoxymethyl-3a,4-dihydro-3H-chromeno[4,3-c]isoxazole] | 25.1 nM |  | 20 nM | 200 nM |
| COc1cc2c(cc1CO)OCC1C2=NOC1CN1CCN(C/C(C)=C/c2ccccc2)CC1 (centres unmarked) [Compound 4, {8-Methoxy-3-[4-(2-methyl-3-phenyl-allyl)-piperazin-1-ylmethyl]-3a,4-dihydro-3H-chromeno[4,3-c]isoxazol-7-yl}-methanol] | 3.98 nM |  | 1.58 nM | 100 nM |
| COc1cc2c(cc1CN1CCOCC1)OCC1C2=NOC1CN1CCN(C/C(C)=C/c2ccccc2)CC1 (centres unmarked) [Compound 10, 8-Methoxy-3-[4-(2-methyl-3-phenyl-allyl)-piperazin-1-ylmethyl]-7-morpholin-4-ylmethyl-3a,4-dihydro-3H-chromeno[4,3-c]isoxazole] | 6.31 nM | 3.98 nM | 0.316 nM | 25.1 nM |
| CC(=O)NCc1ccc2c(c1)OCC1C2=NOC1CN1CCN(C/C(C)=C/c2ccccc2)CC1 (centres unmarked) [Compound 15, N-{3-[4-(2-Methyl-3-phenyl-allyl)-piperazin-1-ylmethyl]-3a,4-dihydro-3H -chromeno[4,3-c]isoxazol-7-ylmethyl}-acetamide] | 5.01 nM |  | 0.794 nM |  |
| COCCOCOCc1cc2c(cc1OC)C1=NOC(CN3CCN(C/C(C)=C/c4ccccc4)CC3)C1CO2 (centres unmarked) [Compound 6, 8-Methoxy-7-(2-methoxy-ethoxymethoxymethyl)-3-[4-(2-methyl-3-phenyl-allyl) -piperazin-1-ylmethyl]-3a,4-dihydro-3H-chromeno[4,3-c]isoxazole] | 7.94 nM | 2.51 nM | 0.794 nM | 31.6 nM |
| C/C(=C\c1ccccc1)CN1CCN(CC2ON=C3c4ccc(/C=N\O)cc4OCC32)CC1 (centres unmarked) [Compound 11, 3-[4-(2-Methyl-3-phenyl-allyl)-piperazin-1-ylmethyl]-3a,4-dihydro-3H -chromeno[4,3-c]isoxazole-7-carbaldehyde oxime] | 5.01 nM |  | 1.58 nM | 5.01 nM |

Second part, the compound after the results:

| IC50 (hα2A receptor) | IC50 (hα2B receptor) | IC50 (hα2C receptor) | IC50 (h5-HT transporter) | SMILES |
| --- | --- | --- | --- | --- |
| 3.16 nM | 2.51 nM | 0.794 nM | 158 nM | COCc1ccc2c(c1)OCC1C2=NOC1CN1CCN(CC(C)=Cc2ccccc2)CC1 (centres unmarked) [Compound 5, 7-Methoxymethyl-3-[4-(2-methyl-3-phenyl-allyl)-piperazin-1-ylmethyl]-3a,4-dihydro-3H-chromeno[4,3-c]isoxazole] |
| 2 nM |  | 1.58 nM | 20 nM | COc1cc2c(cc1C)OCC1C2=NOC1CN1CCN(C/C(C)=C/c2ccccc2)CC1 (centres unmarked) [Compound 2, 8-Methoxy-7-methyl-3-[4-(2-methyl-3-phenyl-allyl)-piperazin-1-ylmethyl]-3a,4-dihydro-3H-chromeno[4,3-c]isoxazole] |
| 39.8 nM | 12.6 nM | 5.01 nM | 3.98 nM | CCN(Cc1cc2c(cc1OC)C1=NOC(CN3CCN(CC(C)=Cc4ccc(F)cc4)CC3)C1CO2)C(C)C (centres unmarked) [Compound 24] |
| 6.31 nM |  | 3.98 nM | 100 nM | CON=Cc1ccc2c(c1)OCC1C2=NOC1CN1CCN(CC(C)=Cc2ccccc2)CC1 (centres unmarked) [Compound 12, 3-[4-(2-Methyl-3-phenyl-allyl)-piperazin-1-ylmethyl]-3a,4-dihydro-3H -chromeno[4,3-c]isoxazole-7-carbaldehyde O-methyl-oxime] |
| 5.01 nM |  | 0.794 nM |  | C/C(=C\c1ccccc1)CN1CCN(CC2ON=C3c4ccc(C=O)cc4OCC32)CC1 (centres unmarked) [Compound 19] |
| 3.16 nM |  | 1.58 nM | 126 nM | CCNC(=O)c1cc2c(cc1OC)C1=NOC(CN3CCN(C/C(C)=C/c4ccccc4)CC3)C1CO2 (centres unmarked) [Compound 16, 8-Methoxy-3-[4-(2-methyl-3-phenyl-allyl)-piperazin-1-ylmethyl]-3a,4-dihydro-3H -chromeno[4,3-c]isoxazole-7-carboxylic acid ethylamide] |
| 15.8 nM |  | 12.6 nM | 158 nM | COc1cc2c(cc1-c1ccccc1)OCC1C2=NOC1CN1CCN(C/C(C)=C/c2ccccc2)CC1 (centres unmarked) [Compound 17, 8-Methoxy-3-[4-(2-methyl-3-phenyl-allyl)-piperazin-1-ylmethyl]-7-phenyl-3a,4-dihydro-3H-chromeno[4,3-c]isoxazole] |
